Measured values reported in patent publication US11359200B2, “Cancer treatment by MALAT1 inhibition” (THE CLEVELAND CLINIC FOUNDATION, priority 2017, dated 2022).
Values belong to the compound of their own block, whether it stands above or below them. d = 2'-deoxy (DNA); m = 2'-O-methyl

What was measured:
MM.1S cells = experiment: Cell viability assay, bortezomib with or without MALAT1 knockdown; format: cell-based; conditions: Homo sapiens, MM1.S
Experimental: (§1) For anti-MALAT1 transfection and ABT-888 (Santa Cruz Biotechnology Inc) or bortezomib (MilliporeSigma) treatment, MM cells were seeded on 12-well plates at a concentration of 5×10^5 cells/mL. The cells were transfected using Lipofectamine 2000 (Thermo Fisher Scientific) with 1 nM control or anti-MALAT1 oligos for 24 hours and then treated with a gradient concentration of ABT-888 or bortezomib for another 24 hours. Cells were subjected to proliferation and apoptosis assays, qRT-PCR, and immunoblotting.
(§2) MM cell lines (MM.1S, H929 and RPMI8226) and drug resistant MM cell lines (RPMI8226/LR5, RPMI8226/DOX40 and RPMI8226/V10R) were treated with anti-MALAT1 oligos for 24 hours. 2×10^4 cells/well were seeded in a 96-well plate with 100 μL medium containing gradient concentration of bortezomib, melphalan or doxorubicin per well. After 72 hours culture, cells were subjected to cell viability assay using CellTilter 96® Aqueous One Solution Cell Proliferation Assay (Promega Corporation), according to the manufacturer's instructions. The half maximal inhibitory concentration (IC50) was calculated by Graphpad Prism V5.0.

H929 cells = experiment: as above; format: cell-based; conditions: Homo sapiens
Experimental: as §1, §2

RPMI8226 cells = experiment: as above; format: cell-based; conditions: Homo sapiens, RPMI-8226, third cell line (RPMI8226, FIG. 6C)
Experimental: as §1, §2

RPMI8226/V10R cells = experiment: Cell viability assay, bortezomib-resistant cells; format: cell-based; conditions: Homo sapiens, RPMI-8226, 72 h
Experimental: (§3) For the drug resistant cells, RPMI8226/DOX40, RPMI8226/LR5 and RPMI8226/V10R cells were transfected with 1 nM control or anti-MALAT1 oligos separately for 24 hours and treated with a gradient concentration of doxorubicin for RPMI8226/DOX40, or melphalan for RPMI8226/LR5, or bortezomib for RPMI8226/V10R for 72 hours. Cell were subjected to qRT-PCR, proliferation and apoptosis assays.
as §2

BRCA1 and BRCA2 = experiment: Immunoblotting of BRCA1 and BRCA2 after bortezomib treatment; format: cell-based, Human; conditions: H929, MM.1S and RPMI8226, high-dose bortezomib
Experimental: (§4) Cells were subjected to proliferation and apoptosis assays, qRT-PCR, and immunoblotting.
(§5) Protein was extracted from cells using RIPA buffer (Thermo Fisher Scientific) containing protease inhibitor cocktail (Roche) and phosphatase inhibitor cocktail (Thermo Fisher Scientific). Protein extracts were boiled in SDS/β-mercaptoethanol sample buffer, and 30 μg samples were loaded into each well on 4%-12% polyacrylamide gels (Thermo Fisher Scientific). The proteins were separated by electrophoresis, and the proteins in the gels were blotted onto PVDF membranes (Thermo Fisher Scientific) by electrophoretic transfer. […] The specific protein—antibody complex was detected with horseradish peroxidase-conjugated rabbit anti-mouse IgG. Detection by chemiluminescence reaction was carried using the SuperSignal West Femto Maximum Sensitivity Substrate kit (Thermo Fisher Scientific). β-actin was used as a loading control.

[1] = tested on: H929, MM.1S and RPMI8226 cells; experiment: MM cell apoptosis assay (annexin V/PI flow cytometry); format: cell-based, Human; conditions: high-/low-dose bortezomib treatment
Experimental: as §1
After transfection of cells with anti-MALAT1 #1 or #2 and control, apoptosis was evaluated by assaying for annexin V. Cells were stained with APC Annexin V Apoptosis Detection Kit with PI (BioLegend), according to the manufacturer's instructions. Stained cells were analyzed using flow cytometry, and data were analyzed using Flowjo software (Ashland).

MALAT1 = MALAT1 knock-down in MM cells by qRT-PCR; format: cell-based, Human; conditions: H929, MM.1S and RPMI8226 cells, 48 h after transfection
Experimental: as §1
Quantitative RT-PCR (qRT-PCR) analysis was used to determine the relative expression level of MALAT1. Total RNA was extracted from cells or tissues using Trizol Reagent (Thermo Fisher Scientific) according to the manufacturer's instructions. After Turbo DNase (Thermo Fisher Scientific) treatment, 500 ng total RNA was subjected to reverse transcription using the RevertAid first-stand cDNA synthesis kit (Thermo Fisher Scientific). Quantitative PCR using SYBR Green PCR master mix (Thermo Fisher Scientific) was employed to determine MALAT1 level with PCR cycle conditions of 95° C. 10 min, 95° C. 15 s, and 60° C. 1 min, for 40 cycles. GAPDH was used as loading control.

γH2A.X = experiment: Immunofluorescence staining and western blot for γH2A.X after MALAT1 knock-down; format: cell-based, Human; conditions: H929, MM.1S and RPMI8226 cells, 48 h after transfection
Experimental: as §5, with “Detection by chemiluminescence reaction was carried using the SuperSignal West Femto Maximum Sensitivity Substrate kit (Thermo Fisher Scientific). β-actin was used as a loading control.” left out

PARP1 = target: T1, PARP1 (Homo sapiens, UniProt P09874); experiment: Immunoblotting after anti-MALAT1 and ABT-888 treatment; format: cell-based
T1 construct: Protein was extracted from cells using RIPA buffer; endogenous in cells; host or cells: H929, MM.1S (human multiple myeloma cell lines, ATCC)
T1 sequence (P09874 whole entry): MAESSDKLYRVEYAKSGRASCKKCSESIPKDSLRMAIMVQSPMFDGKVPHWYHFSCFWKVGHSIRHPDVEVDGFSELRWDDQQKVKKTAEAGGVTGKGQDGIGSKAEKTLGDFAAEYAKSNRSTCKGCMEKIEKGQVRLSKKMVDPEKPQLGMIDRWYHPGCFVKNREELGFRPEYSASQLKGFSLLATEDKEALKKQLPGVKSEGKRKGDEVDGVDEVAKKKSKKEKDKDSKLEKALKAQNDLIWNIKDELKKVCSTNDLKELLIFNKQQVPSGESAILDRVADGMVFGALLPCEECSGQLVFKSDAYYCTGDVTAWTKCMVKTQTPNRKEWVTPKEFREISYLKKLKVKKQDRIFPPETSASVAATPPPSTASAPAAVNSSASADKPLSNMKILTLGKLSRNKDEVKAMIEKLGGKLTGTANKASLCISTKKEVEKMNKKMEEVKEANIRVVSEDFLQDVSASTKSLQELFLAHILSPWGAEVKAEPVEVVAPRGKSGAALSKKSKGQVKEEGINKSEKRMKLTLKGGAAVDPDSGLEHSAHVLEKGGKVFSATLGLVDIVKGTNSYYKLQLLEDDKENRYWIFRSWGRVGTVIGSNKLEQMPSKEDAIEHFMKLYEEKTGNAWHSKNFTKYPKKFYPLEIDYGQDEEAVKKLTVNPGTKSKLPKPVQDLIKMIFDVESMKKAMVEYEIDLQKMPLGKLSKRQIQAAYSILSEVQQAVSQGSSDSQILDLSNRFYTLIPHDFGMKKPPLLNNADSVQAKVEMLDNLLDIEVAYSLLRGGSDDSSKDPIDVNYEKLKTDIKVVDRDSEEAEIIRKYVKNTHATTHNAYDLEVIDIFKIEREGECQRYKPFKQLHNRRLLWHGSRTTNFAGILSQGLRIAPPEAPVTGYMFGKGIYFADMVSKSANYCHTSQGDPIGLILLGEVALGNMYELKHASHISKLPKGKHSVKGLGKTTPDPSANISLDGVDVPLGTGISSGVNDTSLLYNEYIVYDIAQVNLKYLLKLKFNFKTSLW
Experimental: as §4, §5

RPMI8226/LR5 cells = experiment: Cell viability assay, melphalan-resistant cells; format: cell-based; conditions: Homo sapiens, RPMI-8226, 72 h
Experimental: as §3, §2

RPMI8226/DOX40 cells = experiment: Cell viability assay, doxorubicin-resistant cells; format: cell-based; conditions: Homo sapiens, RPMI-8226, 72 h
Experimental: as §3, §2

[2] = transfected with 1 nM anti-MALAT1, 72 hours

IC50 (MM.1S cells; MM.1S cells transfected with 1 nM anti-MALAT1): 6.6 nM
IC50 (MM.1S cells; MM.1S cells, control (before MALAT1 knockdown)): 8.9 nM
IC50 (H929 cells; NCI-H929, H929 cells transfected with 1 nM anti-MALAT1): 3.6 nM
IC50 (H929 cells; NCI-H929, H929 cells, control (before MALAT1 knockdown)): 4.9 nM
IC50 (RPMI8226 cells; control): 10.1 nM
IC50 (RPMI8226 cells; transfected with 1 nM anti-MALAT1): 8.2 nM
IC50 (RPMI8226/V10R cells; control oligos, 72 hours): 194 nM
IC50 (RPMI8226/V10R cells; [2]): 144 nM
Compound: CC(C)C[C@H](NC(=O)[C@H](Cc1ccccc1)NC(=O)c1cnccn1)B(O)O [bortezomib]
expression of BRCA1 and BRCA2 (BRCA1 and BRCA2): dramatically down-regulated
γH2A.X signals and apoptosis ratio [1]: increased

PAR signal (PARP1; H929 and MM.1S, treated synchronously with anti-MALAT1 and ABT888): dose-dependent decreased
level of γH2A.X, cleaved PARP1, and cleaved caspase-3 (PARP1; combination treatment anti-MALAT1 and ABT888): significantly increased
Compound: C[C@]1(c2nc3c(C(N)=O)cccc3[nH]2)CCCN1 [ABT888]

IC50 (RPMI8226/DOX40 cells; control oligos, 72 hours): 2460 nM
IC50 (RPMI8226/DOX40 cells; [2]): 1480 nM
Compound: COc1cccc2c1C(=O)c1c(O)c3c(c(O)c1C2=O)C[C@@](O)(C(=O)CO)C[C@@H]3O[C@H]1C[C@H](N)[C@H](O)[C@H](C)O1 [doxorubicin]

The next lines start with the compound.

Compound: 5′-mG*mG*mC*mA*mU*A*T*G*C*A*G*A*T*A*A*mU*mG*mU*mU*mC-3′ (antisense GGCAUATGCAGATAAUGUUC; sugars from the 5' end m5 d10 m5, all phosphorothioate, methylation of C not given here) [anti-MALAT1-2]
MALAT1 level (qRT-PCR) (MALAT1): efficiently knocked-down
frequency of DNA break (γH2A.X) (γH2A.X): increased substantially

Compound: N[C@@H](Cc1ccc(N(CCCl)CCCl)cc1)C(=O)O [melphalan]
IC50 (RPMI8226/LR5 cells; control oligos, 72 hours): 53400 nM
IC50 (RPMI8226/LR5 cells; [2]): 34000 nM

Compound: 5′-mC*mG*mA*mA*mA*C*A*T*T*G*G*C*A*C*A*mC*mA*mG*mC*mA-3′ (antisense CGAAACATTGGCACACAGCA; sugars from the 5' end m5 d10 m5, all phosphorothioate, methylation of C not given here) [anti-MALAT1-1]
MALAT1 level (qRT-PCR) (MALAT1): efficiently knocked-down
frequency of DNA break (γH2A.X) (γH2A.X): increased substantially
